Results as given in patent publication US20260224526A1, “SALT OF DIPEPTIDE COMPOUND, PREPARATION METHOD THEREOF, AND USE THEREOF” (ZHEJIANG HUAHAI PHARMACEUTICAL CO., LTD., priority 2023, published 2026).
Converted amounts (≈) assume the structure as drawn. Structures can show the parent of a compound that is named as a salt. Where two headings read alike, the source gives them in different places.

Tests used:
[1] = Moisture adsorption content / hygroscopicity; type: physicochemical
Solubility = type: physicochemical
deep vein thrombosis = assay: Rats model of deep vein thrombosis; type: in vivo, SD rats; details: for antithrombotic efficacy, Form I and dabigatran etexilate compared: at the same dose, oral
Text: Experimental animals: SD rats (body weight 220 to 250 g, sex: male)
The thrombus was removed and weighed.

[2] = DVS (Dynamic Vapor Sorption) water absorption; type: physicochemical
pKa = type: physicochemical
[3] = Blood drug level in rats model of deep vein thrombosis; type: in vivo, SD rats
Partition coefficient = type: physicochemical
[4] = Form III stability: mechanical milling and storage at 60° C./sealed condition; type: physicochemical
[5] = intravenous infusion of 0.1 mg/kg/h in rats

CCCCCCOC(=O)NC(=N)c1ccc(CNC(=O)[C@@H]2CCCN2C(=O)[C@@H](CC(C)C)NCC(=O)OCC)cc1 [Form B of the monohydrochloride]
Hygroscopicity [1]: (Hygroscopic)
Moisture adsorption content [1]: 3.0 wt %

CCCCCCOC(=O)NC(=N)c1ccc(CNC(=O)[C@@H]2CCCN2C(=O)[C@@H](CC(C)C)NCC(=O)OCC)cc1 [free alkali of the compound of formula II]
aqueous solubility (Solubility; water): insoluble in water

CCCCCCOC(=O)NC(=N)c1ccc(CNC(=O)[C@@H]2CCCN2C(=O)[C@@H](CC(C)C)NCC(=O)OCC)cc1 [Form I]
Thrombosis inhibition rate (deep vein thrombosis; 10 mg/kg, oral gavage, rats): 70.0%
antithrombotic efficacy, Form I and dabigatran etexilate compared (deep vein thrombosis; rats): basically equivalent
form of sample after DVS test ([2]; after DVS test): converted to amorphous form
behaviour of sample at high humidity (DVS) ([2]; high humidity): undergoes deliquescence
solubility (Solubility; BA, organic solvent or mixture, read-out: Solubility): < 0.3 mg/mL
solubility (Solubility; acetonitrile and dichloromethane): 9.0, 10.0, 11.0, 12.0 and 13.0), readily soluble
solubility (Solubility; buffer solutions with different pH values (1.2, 2.0, 3.0, 4.0, 5.0, 6.0, 7.0, 8.0, 9.0, 10.0, 11.0, 12.0 and 13.0)): Highly soluble in buffer solutions with different
solubility (Solubility; organic solvent or mixture, AC (Acetic acid), read-out: Solubility): > 250 mg/mL
solubility (Solubility; organic solvent or mixture, ACN (Acetonitrile), read-out: Solubility): > 250 mg/mL
solubility (Solubility; organic solvent or mixture, DMSO (Dimethyl sulfoxide), read-out: Solubility): > 250 mg/mL
solubility (Solubility; organic solvent or mixture, Diox (1,4-Dioxane), read-out: Solubility): ~125 mg/mL (≈ 218 mM)
solubility (Solubility; organic solvent or mixture, EtOH (Ethanol), read-out: Solubility): > 250 mg/mL
solubility (Solubility; organic solvent or mixture, Hept (n-Heptane), read-out: Solubility): < 0.3 mg/mL
solubility (Solubility; organic solvent or mixture, IPA (Isopropyl alcohol), read-out: Solubility): ~167 mg/mL (≈ 291 mM)
solubility (Solubility; organic solvent or mixture, IPAc (Isopropyl acetate), read-out: Solubility): ~0.5 mg/mL (≈ 0.871 mM)
solubility (Solubility; organic solvent or mixture, MEK (Methyl ethyl ketone), read-out: Solubility): ~1.6 mg/mL (≈ 2.79 mM)
solubility (Solubility; organic solvent or mixture, MTBE (Methyl tert-butyl ether), read-out: Solubility): < 0.3 mg/mL
solubility (Solubility; organic solvent or mixture, NBA (n-Butanol), read-out: Solubility): ~167 mg/mL (≈ 291 mM)
solubility (Solubility; organic solvent or mixture, THF (Tetrahydrofuran), read-out: Solubility): ~11.1 mg/mL (≈ 19.3 mM)
solubility (Solubility; organic solvent or mixture, Tol (Toluene), read-out: Solubility): < 0.3 mg/mL
solubility (Solubility; water, read-out: Solubility): > 250 mg/mL
Hygroscopicity [1]: Hygroscopic
pKa1 (pKa): 4.94
pKa2 (pKa): 5.54
pKa3 (pKa): 10.61
blood drug levels of compound V ([3]; oral administration of 2.5 mg/kg of Form I to rats): 190.1 ng/mL
blood drug levels of compound V ([3]; oral administration of 5 mg/kg of Form I to rats): 181.3 ng/mL
blood drug levels of compound V ([3]; oral administration of 10 mg/kg of Form I to rats): 341.9 ng/mL
blood drug levels of compound V ([3]; oral administration of 20 mg/kg of Form I to rats): 609.7 ng/mL
logP (Partition coefficient): > 3.38
Log D7.4 (Partition coefficient; pH 7.4): 2.06

CCCCCCOC(=O)NC(=N)c1ccc(CNC(=O)[C@@H]2CCCN2C(=O)[C@@H](CC(C)C)NCC(=O)OCC)cc1 [Form A of the monohydrochloride]
Moisture adsorption content [1]: 0.5 wt %

CCCCCCOC(=O)N=C(N)c1ccc(NCc2nc3cc(C(=O)N(CCC(=O)OCC)c4ccccn4)ccc3n2C)cc1 [Dabigatran etexilate, reference compound]
antithrombotic efficacy, Form I and dabigatran etexilate compared (deep vein thrombosis; rats): basically equivalent

CCCCCCOC(=O)NC(=N)c1ccc(CNC(=O)[C@@H]2CCCN2C(=O)[C@@H](CC(C)C)NCC(=O)OCC)cc1 [Form III]
purity after storage ([4]; 60° C./sealed condition for 7 days): 89.35%
purity before storage ([4]; before storage at 60° C./sealed condition): 95.81%

CC(C)C[C@@H](NCC(=O)O)C(=O)N1CCC[C@H]1C(=O)NCc1ccc(C(=N)N)cc1 [Compound V]
antithrombotic effect compared with oral 5 mg/kg Form I (deep vein thrombosis; [5]): comparable
blood drug levels of compound V compared with oral 5 mg/kg Form I [3, 5]: comparable

CCCCCCOC(=O)NC(=N)c1ccc(CNC(=O)[C@@H]2CCCN2C(=O)[C@@H](CC(C)C)NCC(=O)OCC)cc1 [monohydrochloride]
aqueous solubility (Solubility; water): excellent aqueous solubility

CCCCCCOC(=O)NC(=N)c1ccc(CNC(=O)[C@@H]2CCCN2C(=O)[C@@H](CC(C)C)NCC(=O)OCC)cc1 [dihydrochloride]
aqueous solubility (Solubility; water): excellent aqueous solubility
